Assay results as given in patent publication US6525001B1, “Substituted pyrimidine and pyridine herbicides” (Mid-American Commercialization Corporation, priority 1997, dated 2003).

What was measured:
Assay type in all cases: in vivo
[1] = system: cotton (Gossypium hirsutum); experiment: Test C; settings: PREEMERGENCE
[2] = system: barnyardgrass (Echinochloa crus-galli); experiment: Test C; design: key: 0 was no effect; 100 was complete control; settings: PREEMERGENCE
[3] = system: field bindweed (Convolvulus arvensis); experiment: Test C; design: key: 0 was no effect; 100 was complete control; settings: PREEMERGENCE
[4] = system: large crabgrass (Digitaria sanguinalis); experiment: Test C; design: key: 0 was no effect; 100 was complete control; settings: PREEMERGENCE
[5] = system: fall panicum (Panicum dichotomiflorum); experiment: Test C; design: key: 0 was no effect; 100 was complete control; settings: PREEMERGENCE
[6] = system: surinam grass (Brachiaria decumbens); experiment: Test C; settings: PREEMERGENCE
[7] = system: common groundsel (Senecio vulgaris); experiment: Test E pre-/postemergence/post directed
Summary of the method: (§1)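 Injury scored visually on a 0–100 scale (100 = complete control) 13 to 21 days after treatment. Test chemicals, formulated with surfactant in non-phytotoxic solvent, were applied to soil within one day of planting, to plants at two to four leaves (three to twenty cm), or as directed spray at plant base.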

[8] = system: itchgrass (Rottboellia exaltata); experiment: Test E pre-/postemergence/post directed
Summary of the method: as §1

[9] = system: pitted morningglory (Ipomoea lacunosa); experiment: Test E pre-/postemergence/post directed
Summary of the method: as §1

[10] = system: lambsquarters (Chenopodium album); experiment: Test C; design: key: 0 was no effect; 100 was complete control; settings: PREEMERGENCE
[11] = system: giant foxtail (Setaria faberii); experiment: Test C; design: key: 0 was no effect; 100 was complete control; settings: PREEMERGENCE
[12] = system: common ragweed (Ambrosia elatior); experiment: Test C; settings: PREEMERGENCE
[13] = system: corn (Zea mays); experiment: Test C; design: key: 0 was no effect; 100 was complete control; settings: PREEMERGENCE
[14] = system: velvetleaf (Abutilon theophrasti); experiment: Test C; settings: PREEMERGENCE
[15] = system: surinam grass (Brachiaria decumbens); experiment: Test E pre-/postemergence/post directed; settings: PREEMERGENCE
Summary of the method: as §1

Question: With `COc1cnc(-c2ccc(C(F)(F)F)cc2)nc1Cc1cccc(C(F)(F)F)c1` [Compound 23] as the compound, how does the “Plant response rating, Cotton” value ([1]; Rate 35 g/ha) read?
Answer: 5

Question: And the “Plant response rating, Cotton” value ([1]; Rate 70 g/ha)?
Answer: 75

Question: And the “Plant response rating, Cotton” value ([1]; Rate 140 g/ha)?
Answer: 75

Question: And the “Plant response rating, Barnyardgrass” value ([2]; Rate 35 g/ha)?
Answer: 0

Question: What about the “Plant response rating, Barnyardgrass” value ([2]; Rate 70 g/ha) of the same compound?
Answer: 5

Question: What about the “Plant response rating, Barnyardgrass” value ([2]; Rate 140 g/ha) of the same compound?
Answer: 10

Question: And the “Plant response rating, Field bindweed” value ([3]; Rate 35 g/ha)?
Answer: 20

Question: What about the “Plant response rating, Field bindweed” value ([3]; Rate 70 g/ha) of the same compound?
Answer: 100

Question: And the “Plant response rating, Field bindweed” value ([3]; Rate 140 g/ha)?
Answer: 100

Question: And the “Plant response rating, Large crabgrass” value ([4]; Rate 35 g/ha)?
Answer: 100

Question: What about the “Plant response rating, Large crabgrass” value ([4]; Rate 70 g/ha) of the same compound?
Answer: 100

Question: And the “Plant response rating, Large crabgrass” value ([4]; Rate 140 g/ha)?
Answer: 100

Question: What about the “Plant response rating, Fall panicum” value ([5]; Rate 35 g/ha) of the same compound?
Answer: 55

Question: What about the “Plant response rating, Fall panicum” value ([5]; Rate 70 g/ha) of the same compound?
Answer: 100

Question: What about the “Plant response rating, Fall panicum” value ([5]; Rate 140 g/ha) of the same compound?
Answer: 100

Question: What about the “Plant response rating, Surinam grass” value ([6]; Rate 35 g/ha) of the same compound?
Answer: 5

Question: What about the “Plant response rating, Surinam grass” value ([6]; Rate 70 g/ha) of the same compound?
Answer: 45

Question: What about the “Plant response rating, Surinam grass” value ([6]; Rate 140 g/ha) of the same compound?
Answer: 60

Question: And the “Plant response rating, Com. groundsel” value ([7]; POSTEMERGENCE, Rate 250 g/ha)?
Answer: 40

Question: And the “Plant response rating, Itchgrass” value ([8]; POSTEMERGENCE, Rate 250 g/ha)?
Answer: 80

Question: What about the “Plant response rating, Itchgrass” value ([8]; PREEMERGENCE, Rate 32 g/ha) of the same compound?
Answer: 30

Question: What about the “Plant response rating, Itchgrass” value ([8]; PREEMERGENCE, Rate 64 g/ha) of the same compound?
Answer: 60

Question: And the “Plant response rating, Itchgrass” value ([8]; PREEMERGENCE, Rate 125 g/ha)?
Answer: 70

Question: And the “Plant response rating, Itchgrass” value ([8]; PREEMERGENCE, Rate 250 g/ha)?
Answer: 70

Question: What about the “Plant response rating, P. morninglory” value ([9]; POSTEMERGENCE, Rate 250 g/ha) of the same compound?
Answer: 40

Question: And the “Plant response rating, P. morninglory” value ([9]; PREEMERGENCE, Rate 125 g/ha)?
Answer: 50

Question: And the “Plant response rating, P. morninglory” value ([9]; PREEMERGENCE, Rate 250 g/ha)?
Answer: 80

Question: And the “Plant response rating, Lambsquarters” value ([10]; Rate 35 g/ha)?
Answer: 60

Question: What about the “Plant response rating, Lambsquarters” value ([10]; Rate 70 g/ha) of the same compound?
Answer: 100

Question: What about the “Plant response rating, Lambsquarters” value ([10]; Rate 140 g/ha) of the same compound?
Answer: 100

Question: What about the “Plant response rating, Giant foxtail” value ([11]; Rate 35 g/ha) of the same compound?
Answer: 85

Question: And the “Plant response rating, Giant foxtail” value ([11]; Rate 70 g/ha)?
Answer: 100

Question: And the “Plant response rating, Giant foxtail” value ([11]; Rate 140 g/ha)?
Answer: 100

Question: What about the “Plant response rating, Common ragweed” value ([12]; Rate 35 g/ha) of the same compound?
Answer: 10

Question: What about the “Plant response rating, Common ragweed” value ([12]; Rate 70 g/ha) of the same compound?
Answer: 30

Question: What about the “Plant response rating, Common ragweed” value ([12]; Rate 140 g/ha) of the same compound?
Answer: 90

Question: And the “Plant response rating, Corn” value ([13]; Rate 35 g/ha)?
Answer: 0

Question: And the “Plant response rating, Corn” value ([13]; Rate 70 g/ha)?
Answer: 0

Question: And the “Plant response rating, Corn” value ([13]; Rate 140 g/ha)?
Answer: 5

Question: And the “Plant response rating, Velvetleaf” value ([14]; Rate 35 g/ha)?
Answer: 50

Question: What about the “Plant response rating, Velvetleaf” value ([14]; Rate 140 g/ha) of the same compound?
Answer: 50

Question: What does the source list for `Cc1cnc(-n2ccc(C(F)(F)F)n2)nc1Cc1cccc(OC(F)(F)F)c1` [Compound 42]?
Answer: Plant response rating, Cotton ([1]; Rate 35 g/ha): 30; Plant response rating, Cotton ([1]; Rate 70 g/ha): 60; Plant response rating, Cotton ([1]; Rate 140 g/ha): 60; Plant response rating, Barnyardgrass ([2]; Rate 35 g/ha): 5; Plant response rating, Barnyardgrass ([2]; Rate 70 g/ha): 10; Plant response rating, Barnyardgrass ([2]; Rate 140 g/ha): 100; Plant response rating, Field bindweed ([3]; Rate 35 g/ha): 95; Plant response rating, Field bindweed ([3]; Rate 70 g/ha): 100; Plant response rating, Field bindweed ([3]; Rate 140 g/ha): 100; Plant response rating, Large crabgrass ([4]; Rate 35 g/ha): 80; Plant response rating, Large crabgrass ([4]; Rate 70 g/ha): 100; Plant response rating, Large crabgrass ([4]; Rate 140 g/ha): 100; Plant response rating, Fall panicum ([5]; Rate 35 g/ha): 50; Plant response rating, Fall panicum ([5]; Rate 70 g/ha): 85; Plant response rating, Fall panicum ([5]; Rate 140 g/ha): 100; Plant response rating, Surinam grass ([6]; Rate 35 g/ha): 50; Plant response rating, Surinam grass ([6]; Rate 70 g/ha): 55; Plant response rating, Surinam grass ([6]; Rate 140 g/ha): 70; Plant response rating, Surinam grass ([15]; Rate 32 g/ha): 40; Plant response rating, Surinam grass ([15]; Rate 64 g/ha): 50; Plant response rating, Com. groundsel ([7]; PREEMERGENCE, Rate 32 g/ha): 90; Plant response rating, Itchgrass ([8]; PREEMERGENCE, Rate 32 g/ha): 35; Plant response rating, Itchgrass ([8]; PREEMERGENCE, Rate 64 g/ha): 65; Plant response rating, Itchgrass ([8]; PREEMERGENCE, Rate 125 g/ha): 80; Plant response rating, Itchgrass ([8]; PREEMERGENCE, Rate 250 g/ha): 70; Plant response rating, P. morninglory ([9]; PREEMERGENCE, Rate 64 g/ha): 30; Plant response rating, P. morninglory ([9]; PREEMERGENCE, Rate 125 g/ha): 65; Plant response rating, P. morninglory ([9]; PREEMERGENCE, Rate 250 g/ha): 75; Plant response rating, Lambsquarters ([10]; Rate 35 g/ha): 85; Plant response rating, Lambsquarters ([10]; Rate 70 g/ha): 100; Plant response rating, Lambsquarters ([10]; Rate 140 g/ha): 100; Plant response rating, Giant foxtail ([11]; Rate 35 g/ha): 70; Plant response rating, Giant foxtail ([11]; Rate 70 g/ha): 80; Plant response rating, Giant foxtail ([11]; Rate 140 g/ha): 100; Plant response rating, Common ragweed ([12]; Rate 35 g/ha): 20; Plant response rating, Common ragweed ([12]; Rate 70 g/ha): 85; Plant response rating, Common ragweed ([12]; Rate 140 g/ha): 85; Plant response rating, Corn ([13]; Rate 35 g/ha): 5; Plant response rating, Corn ([13]; Rate 70 g/ha): 5; Plant response rating, Corn ([13]; Rate 140 g/ha): 5; Plant response rating, Velvetleaf ([14]; Rate 35 g/ha): 40; Plant response rating, Velvetleaf ([14]; Rate 70 g/ha): 80; Plant response rating, Velvetleaf ([14]; Rate 140 g/ha): 95

Question: `Cc1cnc(-n2cnc(C(F)(F)F)c2)nc1Cc1cccc(C(F)(F)F)c1` [Compound 44] was tested. Which “Plant response rating, Com. groundsel” value ([7]; POSTEMERGENCE, Rate 125 g/ha) did it give?
Answer: 10

Question: And the “Plant response rating, Com. groundsel” value ([7]; POSTEMERGENCE, Rate 250 g/ha)?
Answer: 10

Question: What about the “Plant response rating, Com. groundsel” value ([7]; PREEMERGENCE, Rate 32 g/ha) of the same compound?
Answer: 98

Question: And the “Plant response rating, Itchgrass” value ([8]; POSTEMERGENCE, Rate 125 g/ha)?
Answer: 5

Question: And the “Plant response rating, Itchgrass” value ([8]; POSTEMERGENCE, Rate 250 g/ha)?
Answer: 10

Question: What about the “Plant response rating, Itchgrass” value ([8]; PREEMERGENCE, Rate 125 g/ha) of the same compound?
Answer: 30

Question: And the “Plant response rating, Itchgrass” value ([8]; PREEMERGENCE, Rate 250 g/ha)?
Answer: 40

Question: What about the “Plant response rating, P. morninglory” value ([9]; POSTEMERGENCE, Rate 125 g/ha) of the same compound?
Answer: 30

Question: What about the “Plant response rating, P. morninglory” value ([9]; POSTEMERGENCE, Rate 250 g/ha) of the same compound?
Answer: 40

Question: And the “Plant response rating, P. morninglory” value ([9]; PREEMERGENCE, Rate 32 g/ha)?
Answer: 20

Question: What about the “Plant response rating, P. morninglory” value ([9]; PREEMERGENCE, Rate 64 g/ha) of the same compound?
Answer: 30

Question: What about the “Plant response rating, P. morninglory” value ([9]; PREEMERGENCE, Rate 125 g/ha) of the same compound?
Answer: 50

Question: And the “Plant response rating, P. morninglory” value ([9]; PREEMERGENCE, Rate 250 g/ha)?
Answer: 50
